Laboratory results reported in patent publication US5208032A, “Increasing the growth of turkeys using implant of 19-nortestosterone” (Rutgers, The State University of New Jersey, priority 1992, dated 1993).

Key:
5-alpha-DHT anti-serum [1] = test: Radioimmunoassay for 5-alpha-DHT: antiserum reaction and inhibition of binding; details: standard curve
Procedure: The following will briefly outline the procedure used for determination of plasma concentration of 5-alpha-DHT. The 5-alpha-DHT anti-serum (Ford's-F/1) was kindly provided by Dr. Alan L. Johnson, Rutgers University, New Brunswick, N.J. This antibody reacted 100% to 5-alpha-DHT,7.9% to testosterone and 11.4% to androstenedione. The antibody was diluted to 1:20,000 in PBSG and stored at 4° C. until added to assay that same day.
5-alpha-Dihydrotestosterone was extracted from plasma ([…]) using benzene:toluene (2:1), with an extraction efficiency of 83.4±6.4 (SD) %. Since further purification of the crude sample extract (i.e., by column chromatography) was not performed, it became necessary to also add extracts from steroid free plasma (i.e., stripped by dextran-coated charcoal) to the standard curve tubes prior to the addition of the different doses of the standard 5-alpha-DHT solutions (3.125 to 1600 pg). […] Following the drying process (Savant-high speed concentrator), 200 microliters 5-alpha-DHT anti-serum solution wwere added to each standard or unknown. After brief vortex mixing, 200 microliters of [1,2,3,7^-3 H] 5-alpha-DHT (^~ 10,000 cpm) was added to each tube and the mixture allowed to incubate overnight at 4° C. The antibody-hormone-bound fraction was separated from the non-bound fraction using a charcoal-dextran suspension. Radioactivity of the bound fraction was measured using a liquid scintillation counter. The percentage bound of the standards was plotted against the log of the hormone concentration to yield a standard curve. Potency estimates of the unknowns were calculated from this standard curve.
Sensitivity of the assay was less than 50.0 pg/ml, while the mean within-assay CV for the low (37.7 pg/ml for plasma stripped and pooled from 3 adult male White Leghorn chickens) and high (265 pg/ml for plasma pooled and not stripped from 3 adult male White Leghorn chickens) plasma pools (n=5) wwas less than 9.4%. The mean between-assay CV for the low and high plasma pools was less than 12.9% (n=7).

5-alpha-DHT anti-serum [2] = details: antibody provided by Dr. Alan L. Johnson; cited from earlier work
testosterone antiserum = test: Radioimmunoassay for testosterone: antiserum cross-reaction and inhibition of binding; set-up: species or system rabbits; details: standard curve
Procedure: Plasma concentrations of testosterone were assayed using component kits from Immuchem Corporation (Carson, Calif.) in which charcoal-stripped chicken plasma (free of testosterone) was used to make up the standards. The antibody is covalently bound to the inner surface of each polypropylene tube (testosterone-19-carboxymethylether-BSA was the antigen used to generate the antiserum in rabbits). To these tubes (at room temperature), a 50 microliter volume of either standard or unknown plasma as added directly without extraction. Following this, a 1000-microliter volume (^~ 40,000 cpm) of ^125 I-testosterone (purified by HPLC and radio-iodinated at position 19; Immuchem Corp.) in phosphosaline buffer-gelatin (pH 7.0) was added and the mixture was vortex mixed briefly. After a 2 hour incubation at room temperature, tubes were placed into styrofoam holding racks and the supernatant decanted onto tin trays lined with newspapers. Residual supernatant left on inside walls of tubes was removed by everting styrofoam holding racks and impacting them onto dry absorbent paper towels. At this point, the assay tubes, with their wall bound antibody-antigen complexes, were counted on a Beckman 5500 gamma counter to determine the radioactivity (^125 I-testosterone) which was antibody-bound. The plasma concentrations of testosterone in unknown samples were determine based on the standards (from 0.10-10 ng/ml) in charcoal-stripped chicken plasma included with each assay.
The Immuchem testosterone antiserum cross-reacts 100% with testosterone, 7.8% with 5-alpha-DHT, 0.56% with 4-adrosten-3,17-dione, and less than 0.01% with 5-alpha-androstane-3-alpha,17-beta-diol and estrogens (manufacturer statement). […] The mean between-assay CV for low and high plasma pools was less than 11.0% (n=5).

[3] = Growth of castrate male turkeys implanted with 19-nortestosterone (Study III, Table V); type: in vivo, Large White Nicholas turkeys; details: castrated male, 5-cm capsule
Procedure: The same large white strain of turkey (received 1 day posthatching from Nicholas Breeding Farms, CA) was used in all studies. Poults were reared in deep litter brooder pens from 1 day posthatch and exposed to constant light until initiation of Studies I and III or through completion in the case of Study II. Studies I and III were conducted in an environmentally controlled room (photoperiod 12L:12D) with birds housed individually in wire-floored layer cages (space dimensions of 0.31 W×0.46 L×0.53 H meters per cage). Water and feed (Agway Game and Turkey Starter Crumbles) was available at all times. Turkeys were rank ordered by weight and distributed into treatment groups of equal mean body weights at the start of each Study (I, II and III).
Body weight determinations were made at the second and final week of each study, and several organs and tissues were excised and immediately weighed at the time of necropsy. Final shank-toe length, as an indicator of skeletal growth, was also determined. Birds were sacrificed via exanguination by laceration of the jugular vein. Specific details on the experimental design and conduct of each turkey study will follow.
Male and female turkeys were either sham-operated or castrated (Quigley, 1962) at 4 weeks of age in the same manner as previously described for chickens. However, due to the small size and extremely viscous nature of the turkey testicle at 2 weeks of age, birds were castrated at 4 weeks of age. […] This was important since when a portion of the testicle is left behind or dropped back inside the body cavity after having been torn loose, the bird will become what is called in the poultry industry, a "slip".
Pre- (4 weeks) and post-surgically (1 week), birds were floor-reared together on pine shavings. At 5 weeks of age, birds were transferred to individual layer cages (dimensions as in Study I) in an environmentally controlled animal room. One week later (6 weeks of age), birds were assigned to 4 groups (9 birds/group). Group 1 was composed of intact males (sham-operated); Group 2, intact females (sham-operated); Group 3, castrated males implanted that same day with cholesterol-filled Silastic polysiloxane capsules (5.0-cm); and Group 4, castrated males implanted that same day with 19-nortestosterone-filled Silastic polysiloxane capsules (5.0-cm). Castrated males were rank ordered by weight prior to group assignment. Male and female groups were composed of birds which had the intermediate body weights from a pool of 15 birds for each sex. Birds were randomized (planned) into cages among tiers (5 cages per tier) and racks, similar to that of Study I, in order to eliminate any rack (4) or tier (3 vertical) effects within the room. Birds served as individual treatment units for all parameters measured including feed consumption (i.e., supplied with individual box-type feeders) and were placed into every other cage starting on the top tier in rack 1.

[4] = change vs castrated control, unsigned (increase)

C[C@]12CCC(=O)C[C@@H]1CC[C@@H]1[C@@H]2CC[C@]2(C)[C@@H](O)CC[C@@H]12 [5-alpha-DHT, 5-alpha-dihydrotestosterone]
80 percent inhibition of binding (5-alpha-DHT anti-serum [1]; n=7): 321.4±31.9 pg/tube | Twenty percent inhibition of binding (5-alpha-DHT anti-serum [1]; n=7): 16.9±2.1 pg/tube | 50 percent inhibition of binding (5-alpha-DHT anti-serum [1]; n=7, 3.125 to 1600 pg): 67.4±8.2 pg/tube | reaction with 5-alpha-DHT anti-serum (Ford's-F/1) (5-alpha-DHT anti-serum [2]): 100%

C[C@]12CC[C@H]3[C@@H](CCC4=CC(=O)CC[C@@]43C)[C@@H]1CC[C@@H]2O [Testosterone, testosterone]
80 percent inhibition of binding (testosterone antiserum; n=5): 462.5±1.5 pg/tube | Twenty percent inhibition of binding (testosterone antiserum; n=5): 15.8±1.7 pg/tube | 50 percent inhibition of binding (testosterone antiserum; n=5, 1.95 pg to 500 pg): 78.8±9.6 pg/tube

C[C@]12CC[C@H]3[C@@H](CCC4=CC(=O)CC[C@@H]43)[C@@H]1CC[C@@H]2O [19-Nortestosterone, 19-nortestosterone]
Abdominal Adipose [3]: 4.92 ± 0.91 | Average Daily Gain [3]: 106 ± 3 g | Feed/Gain Ratio [3]: 1.86 ± 0.05 | Final 9-Week Body Weight [3]: 3643 ± 64 g | Final 9-Week Shank-Toe Length [3]: 21.44 ± 0.18 cm | Right Breast Muscle [3]: 303 ± 13 g | Abdominal Adipose (%) ([3]; change vs castrated control, unsigned (decrease)): 65.6% | Average Daily Gain (%) [3, 4]: 16.5% | Final 9-Week Body Weight (%) [3, 4]: 5.9% | Right Breast Muscle (%) [3, 4]: 14.8% | Feed Efficiency ([3]; change vs castrated control, column head prints (g), cells %): 16.6%
